Entries after “also recorded” stand apart in the source; their conditions may differ. Where a name gives a salt, the structure may show the parent alone.
Legend:
mice [1] = test: Mouse Hot Plate Paradigm; type: in vivo; settings: ip, 0.5 h, i.p., 30 minutes prior to testing, 55° C., read-out: MED Hot plate model (μmol/kg, i.p.)
mice [2] = type: in vivo; settings: mouse, i.p.
Description: Motor coordination was assessed using an accelerating rotarod apparatus (Omnitech Electronics, Inc., Columbus, Ohio). Locomotor activity was monitored under dim light in a 41×41 cm. open field using a photobeam activity system (San Diego Instruments, San Diego, Calif.). The mouse was placed on a 3.5 cm diameter rod which increased in speed from 0 to 40 rpm over 120 seconds. The time required for the mouse to fall from the rod was recorded with a maximum score of 120 seconds. Twenty-five min after receiving an i.p. injection, the mice were placed in the open field for 5 min. After removal from the open field (i.e., 30 min after injection), they were immediately tested on the rotarod. Body temperature was assessed using a probe inserted 3 cm into the rectum approximately 35 min after injection. (YSI Tele-Thermometer, Yellow Springs Instrument Co., Inc., Yellow Springs, Ohio). Diazepam (10.5 μmol/kg, i.p.) was used as a positive control.

[3] = target: T1, peripheral ganglionic receptors (Homo sapiens, UniProt P30926+P32297); test: 86Rb+ flux activation in IMR-32 human neuroblastoma cells; type: cell-based; settings: 1 μM compound, % of maximum response to (S)-nicotine
T1 construct: Cells of the IMR-32 human neuroblastoma clonal cell line (ATCC, Rockville, Md.); host or cells: IMR-32 human neuroblastoma cells
T1 sequence (P32297 32-505): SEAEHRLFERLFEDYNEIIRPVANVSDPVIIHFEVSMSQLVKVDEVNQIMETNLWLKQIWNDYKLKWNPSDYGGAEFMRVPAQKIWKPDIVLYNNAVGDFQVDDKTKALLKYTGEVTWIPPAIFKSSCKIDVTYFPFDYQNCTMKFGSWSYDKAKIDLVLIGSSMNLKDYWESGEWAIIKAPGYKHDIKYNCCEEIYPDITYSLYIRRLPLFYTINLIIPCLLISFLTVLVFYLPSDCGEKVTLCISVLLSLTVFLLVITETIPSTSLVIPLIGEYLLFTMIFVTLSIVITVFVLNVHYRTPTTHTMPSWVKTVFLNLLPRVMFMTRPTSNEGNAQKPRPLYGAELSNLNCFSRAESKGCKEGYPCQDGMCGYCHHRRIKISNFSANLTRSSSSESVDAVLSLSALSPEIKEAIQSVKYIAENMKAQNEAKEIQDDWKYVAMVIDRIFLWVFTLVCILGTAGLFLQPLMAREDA
T1 sequence (P30926 22-498): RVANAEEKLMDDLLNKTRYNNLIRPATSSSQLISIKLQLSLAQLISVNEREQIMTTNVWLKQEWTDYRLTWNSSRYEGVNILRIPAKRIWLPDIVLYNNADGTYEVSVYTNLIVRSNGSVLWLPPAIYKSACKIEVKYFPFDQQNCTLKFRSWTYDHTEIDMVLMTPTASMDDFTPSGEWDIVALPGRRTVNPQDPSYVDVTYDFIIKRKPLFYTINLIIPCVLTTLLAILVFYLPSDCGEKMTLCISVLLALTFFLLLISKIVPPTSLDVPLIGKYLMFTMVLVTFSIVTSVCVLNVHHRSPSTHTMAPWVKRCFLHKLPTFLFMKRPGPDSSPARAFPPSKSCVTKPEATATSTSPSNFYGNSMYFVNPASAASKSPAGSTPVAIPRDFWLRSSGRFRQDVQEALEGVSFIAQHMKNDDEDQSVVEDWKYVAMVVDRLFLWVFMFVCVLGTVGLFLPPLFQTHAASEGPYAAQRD
Description: Protocol for the Determination of Ability of Nicotinic Acetylcholine Receptor Ligands to Activate Peripheral Ganglionic Receptors
Cells of the IMR-32 human neuroblastoma clonal cell line (ATCC, Rockville, Md.) were maintained in a log phase of growth according to established procedures. Experimental cells were seeded at a density of 500,000 cells/mL into a 24-well tissue culture dish. Plated cells were allowed to proliferate for at least 48 hours before loading with 2 μCi/mL of ^86Rb^+ (35 Ci/mmol) overnight at 37° C. The ^86Rb^+ efflux assays were performed according to previously published protocols (Lukas, R. J., J. Pharmacol. Exp. Ther., 265: 294-302, 1993) except serum-free Dulbecco's Modified Eagle's Medium was used during the ^86Rb^+ loading, rinsing, and agonist-induced efflux steps. Data reflect the activation of ^86Rb^+ flux at a concentration of 1 μM, and reflect the response as a percentage of the maximum response elicited by (S)-nicotine.

[4] = target: T2, neuronal nicotinic acetylcholine receptors (Rattus norvegicus, UniProt P09483+P12390); test: [3H]-cytisine binding to neuronal nicotinic acetylcholine receptors, whole rat brain membranes; settings: [3H]-cytisine 1.25 nM, whole rat brain membranes; read-out: [3H] CYT Ki
T2 construct: crude synaptic membrane preparations from whole rat brain; from tissue; host or cells: whole rat brain, crude synaptic membranes
T2 sequence (P09483 31-630): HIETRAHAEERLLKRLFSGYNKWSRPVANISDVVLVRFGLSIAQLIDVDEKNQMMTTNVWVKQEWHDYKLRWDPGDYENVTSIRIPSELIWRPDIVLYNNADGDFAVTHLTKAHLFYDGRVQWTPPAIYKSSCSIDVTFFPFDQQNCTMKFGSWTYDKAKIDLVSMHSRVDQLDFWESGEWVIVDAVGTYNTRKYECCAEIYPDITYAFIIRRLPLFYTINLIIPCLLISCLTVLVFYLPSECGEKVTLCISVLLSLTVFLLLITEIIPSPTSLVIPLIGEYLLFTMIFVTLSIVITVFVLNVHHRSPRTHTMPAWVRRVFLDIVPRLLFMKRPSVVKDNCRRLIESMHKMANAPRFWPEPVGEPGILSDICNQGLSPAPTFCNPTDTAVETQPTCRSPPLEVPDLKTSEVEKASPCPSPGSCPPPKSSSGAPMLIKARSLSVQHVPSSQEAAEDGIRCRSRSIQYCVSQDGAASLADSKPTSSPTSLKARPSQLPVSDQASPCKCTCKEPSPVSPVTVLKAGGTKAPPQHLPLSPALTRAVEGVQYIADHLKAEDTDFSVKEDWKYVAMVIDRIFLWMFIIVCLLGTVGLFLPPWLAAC
T2 sequence (P12390 25-500): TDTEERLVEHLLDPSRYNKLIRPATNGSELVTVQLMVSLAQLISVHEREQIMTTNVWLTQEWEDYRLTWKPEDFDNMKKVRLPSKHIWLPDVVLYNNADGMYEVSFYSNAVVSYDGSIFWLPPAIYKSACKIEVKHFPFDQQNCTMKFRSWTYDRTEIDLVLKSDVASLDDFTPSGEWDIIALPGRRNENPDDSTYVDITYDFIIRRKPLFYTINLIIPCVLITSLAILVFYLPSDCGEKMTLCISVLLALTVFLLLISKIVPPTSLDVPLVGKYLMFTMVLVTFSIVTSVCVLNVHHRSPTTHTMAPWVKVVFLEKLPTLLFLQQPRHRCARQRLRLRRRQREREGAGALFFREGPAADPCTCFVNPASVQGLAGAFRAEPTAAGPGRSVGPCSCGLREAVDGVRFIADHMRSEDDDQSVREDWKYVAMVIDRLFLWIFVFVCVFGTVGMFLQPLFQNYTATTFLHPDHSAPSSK
Procedure, shortened: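 Crude synaptic membranes from whole rat brain (125-150 μg protein) incubated with test compound and 1.25 nM [3H]-cytisine for 60 min at 4 °C in Tris-Cl buffer pH 7.4 with Na/K/Mg/Ca salts. Filtration through PEI-soaked filters; nonspecific binding with 10 μM (−)-nicotine; values as percentage of total binding.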

rats [5] = test: Chung Model of Neuropathic Pain following repeated dosing; type: in vivo; settings: rat; for anti-allodynic effect following repeated dosing: in vivo, ip
Description: Animals were surgically prepared as described above for the Chung model. For assessment of each test compound, two treatment groups (6 animals each) were established. One group was injected (i.p.) with test compound twice daily for 5 days, and the other group was injected on the same schedule with saline. Responses to von Frey hairs were assessed as described above both before, and 15 minutes after, injection on the first 2 days and also on the 5th day. The saline-treatment group was given saline for the first 4 days and on the morning of the 5th day, but received a challenge of the test compound in the afternoon of the fifth day.

[6] = target: neuromuscular junction nicotinic acetylcholine receptor (Tetronarce californica, UniProt P02710+P02714+P02718); test: biochemical; type: binding, Torpedo Californica
Sequence of neuromuscular junction nicotinic acetylcholine receptor (P02714 18-506): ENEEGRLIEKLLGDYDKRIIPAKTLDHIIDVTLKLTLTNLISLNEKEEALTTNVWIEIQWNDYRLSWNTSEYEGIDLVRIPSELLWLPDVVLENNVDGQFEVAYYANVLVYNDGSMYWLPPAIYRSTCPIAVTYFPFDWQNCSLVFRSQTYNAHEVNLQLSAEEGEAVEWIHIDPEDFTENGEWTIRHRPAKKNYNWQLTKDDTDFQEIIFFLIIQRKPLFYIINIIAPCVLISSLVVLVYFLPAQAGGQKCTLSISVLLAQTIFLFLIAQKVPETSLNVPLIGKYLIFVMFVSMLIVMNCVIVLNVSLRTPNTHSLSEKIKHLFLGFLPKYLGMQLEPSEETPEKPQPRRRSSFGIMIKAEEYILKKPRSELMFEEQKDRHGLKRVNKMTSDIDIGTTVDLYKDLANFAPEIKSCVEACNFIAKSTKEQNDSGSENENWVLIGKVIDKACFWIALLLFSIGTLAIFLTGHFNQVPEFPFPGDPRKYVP
Sequence of neuromuscular junction nicotinic acetylcholine receptor (P02710 25-461): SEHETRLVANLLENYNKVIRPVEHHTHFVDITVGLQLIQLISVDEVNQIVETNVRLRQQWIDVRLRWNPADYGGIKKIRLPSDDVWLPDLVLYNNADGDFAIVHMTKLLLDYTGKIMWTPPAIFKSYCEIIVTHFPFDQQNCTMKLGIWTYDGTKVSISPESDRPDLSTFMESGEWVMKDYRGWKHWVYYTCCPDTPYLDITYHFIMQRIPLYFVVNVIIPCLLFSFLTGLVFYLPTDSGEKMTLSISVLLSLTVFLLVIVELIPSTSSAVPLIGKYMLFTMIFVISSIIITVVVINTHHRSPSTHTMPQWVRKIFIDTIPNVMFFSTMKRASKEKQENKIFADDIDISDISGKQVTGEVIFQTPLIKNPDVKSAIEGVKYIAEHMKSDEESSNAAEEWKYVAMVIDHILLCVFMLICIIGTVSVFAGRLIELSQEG
Sequence of neuromuscular junction nicotinic acetylcholine receptor (P02712 25-493, further chain): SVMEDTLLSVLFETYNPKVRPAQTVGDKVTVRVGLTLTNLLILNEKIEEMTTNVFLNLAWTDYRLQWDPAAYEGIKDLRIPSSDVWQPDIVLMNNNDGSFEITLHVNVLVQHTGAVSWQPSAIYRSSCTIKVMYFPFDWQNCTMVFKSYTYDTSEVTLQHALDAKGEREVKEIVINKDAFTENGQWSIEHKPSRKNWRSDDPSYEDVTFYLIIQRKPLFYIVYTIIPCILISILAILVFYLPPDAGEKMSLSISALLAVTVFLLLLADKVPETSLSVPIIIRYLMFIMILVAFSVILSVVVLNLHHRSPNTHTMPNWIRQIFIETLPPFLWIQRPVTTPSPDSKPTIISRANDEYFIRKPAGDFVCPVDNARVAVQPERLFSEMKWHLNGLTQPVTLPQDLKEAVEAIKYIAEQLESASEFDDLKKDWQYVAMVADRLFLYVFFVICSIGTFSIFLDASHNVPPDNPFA
Sequence of neuromuscular junction nicotinic acetylcholine receptor (P02718 22-522): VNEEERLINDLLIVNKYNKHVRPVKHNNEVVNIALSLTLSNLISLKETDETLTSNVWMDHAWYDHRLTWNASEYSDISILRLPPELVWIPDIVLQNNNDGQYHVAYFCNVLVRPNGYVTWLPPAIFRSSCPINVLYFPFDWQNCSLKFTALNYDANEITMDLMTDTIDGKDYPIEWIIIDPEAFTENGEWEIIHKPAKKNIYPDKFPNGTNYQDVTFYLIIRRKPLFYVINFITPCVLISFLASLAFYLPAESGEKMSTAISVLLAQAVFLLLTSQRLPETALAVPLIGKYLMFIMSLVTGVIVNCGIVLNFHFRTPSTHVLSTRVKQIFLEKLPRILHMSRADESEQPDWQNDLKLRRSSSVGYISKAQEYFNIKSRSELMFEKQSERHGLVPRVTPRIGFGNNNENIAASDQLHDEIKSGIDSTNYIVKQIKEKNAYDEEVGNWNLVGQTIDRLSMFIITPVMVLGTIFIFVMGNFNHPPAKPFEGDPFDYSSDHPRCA

rats [7] = test: Formalin Model of Persistent Pain; type: in vivo; settings: rat, oral, 0.1-0.3 umol/kg, 15 minutes prior to formalin, second phase
rats [8] = test: Carrageenan paw edema model; type: in vivo; settings: rat, i.p.
rat spinal cord cultures = test: Neuroprotection against substance P or glutamate toxicity in primary spinal cord cultures (LDH release); type: cell-based; settings: rat spinal cord cultures
mice [9] = settings: mouse, in vivo, ip
Description: Compounds were co-mixed in a syringe, and co-administered via the intraperitoneal route 30 min prior to testing in the mouse hot-plate paradigm as indicated above. Separate groups of animals (n=7-8/group) were used for each dose group.

rats [10] = test: Chung Model of Neuropathic Pain; type: in vivo; settings: rat, 50% threshold to VonFrey hairs

Compound	minimal effective dose (mice [1]) [µmol/kg]	dose showing rotarod impairments (mice [2]; in 2 of 3 experiments) [µmol/kg]	IMR-32 % maximal nicotine response at 1 μM Cmpd conc'n [3] [%]	Ki [4] [nM]	anti-allodynic effects during each test session (rats [5]; 0.3 μmol/kg, i.p., b.i.d., 5 days)	anti-allodynic effect following repeated dosing (rats [5])	Ki [6] [nM]	reduced affinity for the neuromuscular junction nicotinic acetylcholine receptor [6] [fold]	antinociceptive effects in the Formalin Model (rats [7])	ED30 reduction of carrageenan-induced paw edema (rats [8]) [µmol/kg]	efficacy to reduce paw edema compared with dexamethasone (rats [8]; hydrochloride)	protection against SP- and Glu-induced neurotoxicity (rat spinal cord cultures; SP 30 μM or Glu 300 μM, hydrochloride)	EC50 (rat spinal cord cultures; SP and Glu-induced neurotoxicity) [nM]	antinociceptive activity combined with effective doses of morphine (mice [9])	antinociceptive activity combined with subthreshold doses of morphine (mice [9])	antinociceptive effects when coadministered with morphine (mice [9])	MED Chung model (μmol/kg, i.p.) (rats [10]) [µmol/kg]	dose at which a rotarod effect was reached (mice [2])
Fc1ccc(OC[C@@H]2CCN2)cn1 [Example 9, 5-(2S)-Azetidinylmethyloxy)-2-fluoropyridine dibenzoate]	0.62	0.62	103	0.16	–	–	–	–	–	–	–	–	–	–	–	–	–	–
Clc1ccc(OC[C@H]2CCN2)cn1 [Example 4, 5-((2R)-Azetidinylmethyloxy)-2-chloropyridine hydrochloride]	0.62	–	97	0.05	Significant anti-allodynic effects	does not decrease following repeated dosing	16600	12.8	produced significant antinociceptive effects	0.21	as effective as dexamethansone; also recorded: as efficacious as dexamethasone	protects against SP-induced neurotoxicity; also recorded: reduces both SP and Glu-induced neurotoxicity	10000	enhanced antinociceptive activity	can produce effective antinociceptive activity	produced effective antinociceptive effects	0.3	–
Fc1ccc(OCC2CCN2)cn1 [Example 8, 5-(2R)-Azetidinylmethyloxy)-2-fluoropyridine dibenzoate]	1.9	–	46	0.06	–	–	–	–	–	–	–	–	–	–	–	–	0.62	19
CN1CC[C@]23c4c5ccc(O)c4O[C@H]2[C@@H](O)C=C[C@H]3[C@H]1C5 [morphine, reference compound]	–	–	–	–	–	significantly reduced	–	–	–	–	–	–	–	–	–	–	–	–
